Laboratory results reported in patent US20250120928A1 (University of Maryland, Baltimore, priority 2021, published 2025).
Entries after “also recorded” stand apart in the source; their conditions may differ.

Assays:
[1] = test system: T cells (CD3+) from splenocytes; experiment: Splenocyte apoptosis and cell death by AV/PI flow cytometry, T cells; type: cell-based; details: concentrations up to 30 μM
BMMØs [2] = type: cell-based; details: 0-30 μM
Procedure: (§1) Three hours later, cells were stimulated with 100 ng/mL LPS. After 48 hours, cells were lifted using Versene and washed with cold PBS supplemented with 1% FBS and 0.4% 0.5 M EDTA (Quality Biological, Gaithersburg, MD). FcR blocking was performed with purified anti-mouse CD16/32 antibody (#101301) (Biolegend, San Diego, CA) prior to staining with Annexin V-FITC and propidium iodide kit (#640914) (BioLegend, San Diego, CA) for apoptosis and cell death. Cell staining was conducted according to BioLegend protocols for flow cytometry. Flow cytometry data were collected using a Becton Dickinson LSR II or Becton Dickinson Canto II flow cytometer. Flow plots and data processing was done using FCS Express 7 Flow Cytometry De Novo Software (De Novo, Glendale, CA).
as §1, with “After” for “Three hours later, cells were stimulated with 100 ng/mL LPS. After”

unstimulated BMMØs = experiment: MTS assay; type: cell-based, C57BL/6J mice; details: Mus musculus; unstimulated BMMØs treated for 48 hours; read-out: IC50 (MTS assay, cellular proliferation)
Procedure: Cells were then washed with PBS and 50 μL of MTS solution was added to each well and incubated for 1 hour. The optical density (O.D.) of the solution was measured using a SpectraMax iD3 microplate reader at 570 nm. The percentage of cell proliferation was measured as the ratio of O.D. at 570 nm to no treatment control. IC50 values were calculated using GraphPad Prism 9 program based on a sigmoidal dose-response equation.

HDAC1, 2, 3 = test system: T1, HDAC1, 2, 3; experiment: Fluorescence-based HDAC activity assay with fluorogenic peptide substrate (Reaction Biology); type: biochemical
T1 construct: other: range over the three isoforms; other: 237-359 nM compared to 30000 nM
Procedure: Fluorescence-based activity assays using fluorogenic peptides as substrates for HDAC1, 2, 3, 6, and 8 were performed by Reaction Biology Corporation (reactionbiology.com). […] The substrate for HDACs 1, 2, 3, and 6 was a fluorogenic peptide from p53 residues 379-382 (RHKK(Ac)AMC) (SEQ ID NO: 1). The substrate for HDAC8 was a fluorogenic peptide from p53 residues 379-382 (RHK(Ac)K(Ac)AMC) (SEQ ID NO: 2). SAHA-OH IC50 values were calculated using GraphPad Prism 4 program based on a sigmoidal dose-response equation. The blank (DMSO) value was entered as 1.00×10^−12 of concentration for curve fitting.

BMMØs [3] = experiment: Western blot analysis of acetyl-histone H3 and acetyl-α-tubulin; details: 10 μM, unstimulated BMMØs, 4 and 9 hours
Procedure: Day 8 BMMØs were seeded at 1×10^6 cells/well in sterile 6-well plates incubated at 37° C. and 5% CO2 overnight to allow for cell adherence. […] Cells were lysed with Halt™ Protease Inhibitor Cocktail (Cat #78429) (Thermo Fisher, Waltham MA) in RIPA Buffer (Cat #R0278) (Sigma-Aldrich, St. Louis, MO) and scraped with a cell scraper (VWR, Radnor, PA). Lysates were sonicated with a ⅛^th needle tip using a Cole-Parmer 500-Watt Ultrasonic Homogenizer at 40% amplitude for 10 seconds on ice. Lysates were then centrifuged at 4° C. for 20 minutes at 12,000×g. The supernatant was collected and frozen at −80° C. until ready for western blot analysis. Protein lysates were produced using 50/50 sample to 2×SDS/PAGE sample buffer. Proteins were then separated by SDS/PAGE and immunoblotted using Histone H3 (D1H2) XP, Acetyl-Histone H3 (lys9/Lys14), α-Tubulin (11H10), Acetyl-α-Tubulin (Lys40) (D20G3) XP and β-Actin as primary antibodies. ECL was used for detection.
Day 8 BMMØs were seeded at 1×10^6 cells/well in sterile 6-well plates incubated at 37° C. and 5% CO2 overnight to allow for cell adherence. […] Cells were lysed with Halt™ Protease Inhibitor Cocktail (Cat #78429) (Thermo Fisher, Waltham MA) in RIPA Buffer (Cat #R0278) (Sigma-Aldrich, St. Louis, MO) and scraped with a cell scraper (VWR, Radnor, PA). Lysates were sonicated with a ⅛th needle tip using a Cole-Parmer 500-Watt Ultrasonic Homogenizer at 40% amplitude for 10 seconds on ice. Lysates were then centrifuged at 4° C. for 20 minutes at 12,000×g. The supernatant was collected and frozen at −80° C. until ready for western blot analysis. Protein lysates were produced using 50/50 sample to 2×SDS/PAGE sample buffer. Proteins were then separated by SDS/PAGE and immunoblotted using Histone H3 (D1H2) XP, Acetyl-Histone H3 (Lys9/Lys14), α-Tubulin (11H10), Acetyl-α-Tubulin (Lys40) (D20G3) XP and β-Actin as primary antibodies. ECL was used for detection.

[4] = test system: B cells (B220+) isolated from splenocytes; experiment: Splenocyte apoptosis and cell death by AV/PI flow cytometry, B cells; type: cell-based
Procedure: Splenocytes were isolated from spleens as previously described. Briefly, 5-12-week C57BL/6J female mice were euthanized and the spleen was isolated. The spleen was processed into single-cell suspensions using a 40 μm cell strainer and flushed with cold PBS supplemented with 1% FBS and 0.4% 0.5 M EDTA (Quality Biological, Gaithersburg, MD). Erythrocytes were lysed with ACK lysis buffer (Quality Biological, Gaithersburg, MD). […] Subsequently, splenocytes were stimulated with 100 ng/mL LPS for 24 hours. Splenocytes were then washed with cold PBS supplemented with 1% FBS and 0.4% 0.5 M EDTA and FcR blocked, as previously mentioned. Splenocytes were then stained with purified anti-mouse PE/Cyanine7 CD45R/B220 antibody (#103222) (BioLegend, San Diego, CA) for the B cell population. SAHA and SAHA-OH apoptosis and cell death were then assessed using the FITC-AV Apoptosis Detection Kit with PI via flow cytometry, as previously mentioned. Flow cytometry data were collected using a Cytex Aurora flow cytometer. Flow plots and data processing was done using FCS Express 7 Flow Cytometry De Novo Software (De Novo, Glendale, CA).

O=C(CCCCCCC(=O)Nc1ccc(CO)cc1)NO [SAHA-OH, N^1-hydroxy-N^8-(4-(hydroxymethyl)phenyl)octanediamide]
toxicity for the T cell population [1]: minimal toxicity
apoptosis (AV+/PI−) over concentration (BMMØs [2]): apoptosis induction
viability (AV−/PI−) over concentration (BMMØs [2]): concentration-dependent viability reduction
IC50 (unstimulated BMMØs): 1.3 µM
more selective for HDAC1, 2, 3 compared to Tubastatin A (HDAC1, 2, 3; 237-359 nM compared to 30000 nM): approximately 100 fold
IC50 (HDAC1, 2, 3; range over the three isoforms, read-out: IC50 against HDAC1, 2, 3): 0.237 to 0.359 µM
acetylation of histone H3 (BMMØs [3]): slight decrease in histone H3 acetylation compared to SAHA; also recorded: reduced Ac—H3 activity compared to SAHA
acetylation of α-tubulin (BMMØs [3]): similarly resulted in the acetylation; also recorded: similar
toxicity profile for the B cell population ([4]; 0-30 μM): concentration-dependent toxicity profiles
decrease in cell death of the B cell population versus SAHA ([4]; 10 μM): 3 fold
enhancement in viability of the B cell population versus SAHA ([4]; 10 μM): 5 fold
